Measured values: US20260184700A1, “PDK1 REGULATORY COMPOUND AND COMPOSITION CONTAINING THE SAME” (PROVIBIO CO., LTD., priority 2024, published 2026)

Legend:
[1] = test system: bleomycin-treated Balb/c mice; assay: Bleomycin-induced pulmonary fibrosis animal model; format: in vivo, mouse; conditions: bleomycin mice lung, vs BLM-treated group
Text: To evaluate the therapeutic efficacy of the compound according to the present invention against pulmonary fibrosis, an animal model of pulmonary fibrosis induced by bleomycin intratracheal administration was established.
For this purpose, 8-week-old male Balb/c mice were subjected to general anesthesia using an inhalation anesthetic (2-3% isoflurane in oxygen), followed by disinfection of the neck region, skin incision, and exposure of the trachea.
Bleomycin (Sigma-Aldrich, USA) was directly administered into the trachea at a concentration of 5 mg/kg in a solution of 100 μL.
Two days prior to Bleomycin administration, the compound of the present invention or the comparative drug was administered intraperitoneally at the specified concentration and dose, and the administration was continued once daily for a total of 14 days.
The experimental groups included Normal, Bleomycin alone (BLM), and BLM plus the compound of the present invention (BLM+GO88, 0.2 mg/kg).
Ten days later, the mice were euthanized humanely using carbon dioxide gas, the trachea was incised, and PBS was injected into the trachea to remove blood from the lungs.
The lung tissue washed with PBS was excised, fixed in 4% paraformaldehyde solution for 24 hours, and then paraffin blocks and tissue sections were prepared. The prepared sections were subjected to pathological analysis using H & E, Masson's trichrome, and Sirius red staining.
Additionally, immunohistochemical (IHC) staining was performed for α-SMA (α-smooth muscle actin), an indicator of lung fibroblast activation.

MRL/lpr mice = assay: Lupus animal model (MRL/lpr mice); format: in vivo, mouse
Text: The MRL/MpJ-Faslpr/J (Hereinafter Referred to as “MRL/lpr”) used in this experiment is one of the representative animal models for systemic lupus erythematosus (SLE), known to produce various autoantibodies, including antinuclear antibodies, due to the lpr (lymphoproliferation) gene.
In this invention, the period up to 9 weeks of age was considered the pre-disease stage, and the period after 23 weeks of age was considered the post-disease stage, and efficacy verification experiments using this model were conducted.
MRL/lpr mice were imported from The Jackson Laboratory and acclimatized for one week in an SPF (Specific Pathogen Free) facility maintained at a temperature of 21-24° C., humidity of 40-60%, and a 12-hour light-dark cycle (lights on at 7:00 AM, lights off at 7:00 PM). […]
The serum separated at the time of necropsy of the lupus animal model was analyzed using the ‘IgG (Total) Mouse Uncoated ELISA Kit (Invitrogen, Cat. #88-50400)’ to measure the concentration of total IgG.
Capture antibody (anti-mouse IgG) diluted 1/250 in coating buffer was added to each well of a 96-well plate (Nunc™ MaxiSorp™ ELISA Plates, Uncoated, BioLegend, Cat. #423501) at 100 μl per well, and the plate was incubated at 4° C. for 16 hours.
To investigate the effect of GO15F administration on changes in the ratio of immune cells in the spleen of a lupus animal model, the spleens of mice administered each compound were excised, cells were extracted, and the cells were suspended in MACS buffer (autoMACS Washing Solution, Miltenyi Biotec., Cat. #130-092-987).
For flow cytometry analysis, FACS tubes (5 mL round tubes, Falcon, Cat. #352052) were used. To prevent non-specific binding of antibodies, 1 μg/mL of anti-mouse CD16/CD32 (InVivoPlus anti-mouse CD16/CD32, BioXCell, Cat. #BP0307) for 30 minutes to prevent non-specific binding of the antibody, then centrifuge at 1,500 rpm for 5 minutes and resuspend in 100 μL of MACS buffer.
For B cells, each FACS tube was stained with 1 μg/mL of FITC-conjugated anti-B220 antibody (eBioscience™, Cat. #11-0452-81) at 4° C. for 30 minutes, then washed with 2 mL of MACS buffer.
For T cells, each FACS tube was stained with 1 μg/mL PerCP-Cy5.5-conjugated anti-CD3 (Biolegend, Cat. #100218) at 4° C. for 30 minutes.
For macrophages, each FACS tube was stained with 1 μg/mL of PE-conjugated anti-CD11b antibody (Biolegend, Cat. #101207) and PerCP-Cy5.5-conjugated anti-F4/80 (Biolegend, Cat. #123128) and incubated at 4° C. for 30 minutes. The tubes were then washed with 2 mL of MACS buffer.
To investigate the effects of compound GO15F according to the present invention on systemic immune responses in a lupus animal model, gene expression analysis of cytokines in kidney tissue was performed as described in (1).
Each kidney tissue was used to isolate total RNA using TRIzol™ (Invitrozen, Cat. #15596018). RNA from each mouse was quantified at 1 μg using a micro-quantitative spectrophotometer (ThermoFisher Scientific, ND2000) and cDNA was synthesized.
The synthesized cDNA from each mouse was quantified to a concentration of 50 ng using a micro-quantitative spectrophotometer, and qPCR was performed for the cytokines ‘IL-2, IL-6, IL-10, IL-17, TNF-α, IFN-γ’ using a SYBR green probe (CFX96, BIO-RAD).
To investigate the effects of drug administration on renal tissue in MRL/lpr mice, the tissue was fixed in 10% neutral buffered formalin at room temperature, followed by stepwise ethanol penetration for dehydration. The tissue was then embedded in xylene and paraffin.
The blocked tissues were sectioned into 4 μm thick slices using a microtome, followed by deparaffinization, hydration, and staining.
Hematoxylin & Eosin staining, PAS staining, and Masson trichrome staining were performed for pathological evaluation of the tissues. […]

[2] = test system: phospho-PDK1 in SU-DHL-8 cells; assay: PDK1 phosphorylation (pPDK1) by flow cytometry in SU-DHL-8 cells; format: cell-based, human; conditions: SU-DHL-8, 24 hours, pPDK1-PE flow cytometry, vs control group
Procedure: SU-DHL-8 cells were cultured in RPMI-1640 medium (containing 10% FBS, 100 U/mL penicillin, and 100 μg/mL streptomycin), and the cell concentration was adjusted to 1×10^6 cells/mL and seeded into a 12-well plate. After stabilizing the cells, the compound of the present invention was added, and the cells were cultured for 24 hours.
After drug treatment, the cells were harvested, and the Fc receptor blocking process was performed. The cells were then fixed and permeabilized using the Intracellular Staining Kit (Cat. No. BD554715) from BD Biosciences. Subsequently, the intracellular pPDK1 was stained using the pPDK1-PE fluorescently labeled antibody (BD Biosciences).
Referring to the figure, the vertical axis represents the phosphorylation level of PDK1 (phospho-PDK1 expression level), and the horizontal axis denotes the concentration-dependent treatment conditions of each compound.

[3] = test system: NHDF (Normal Human Dermal Fibroblast) cells; assay: Doxorubicin-induced aging NHDF cell model, SA-β-gal and Ki-67; format: cell-based; conditions: Doxorubicin (100 ng/ml) and IGF-1 (100 ng/ml), GO15F 0.01, 1 μM, 7 days
Procedure: After pre-incubation, the medium was removed, and the cells were cultured for 7 days in medium containing Doxorubicin (100 ng/ml) and IGF-1 (100 ng/ml) with GO15F. During this process, the medium was replaced with fresh medium every 2 days. The cultured cells were washed with PBS, fixed with 1× fixation buffer for 15 minutes, washed again with PBS, and then 300 μL of 1× working SA-β-gal buffer was added to each well. The cells were incubated at 37° C. for 24 hours. After the reaction was terminated, the cells were washed with PBS, and the fluorescence intensity of β-gal-positive cells stained blue was observed and photographed using a light microscope. Additionally, to investigate the effect of the compound (GO15F) of the present invention on proliferation activity in aging-induced NHDF (Normal Human Dermal Fibroblast) cells, Ki-67 expression was measured via FACS analysis. First, NHDF cells were seeded at 1×10^4 cells per well in a 12-well plate and stabilized for 24 hours. Subsequently, the cells were pre-incubated with GO15F at a concentration of 0.01 μM for 24 hours. After pre-incubation, the medium was removed, and GO15F (0.01 μM) was added to the medium containing Doxorubicin (100 ng/ml) and IGF-1 (100 ng/ml), followed by incubation for 7 days with fresh medium replaced every 2 days. […]

[4] = MRL/lpr mice, serum at necropsy, ELISA, vs control group

## Nc1ncccc1C(=O)NCCCCCCCCCCCCF [Compound 57, 2-Amino-N-(12-fluoro-dodecyl)-nicotinamide]
[1]
  collagen deposition (Masson's trichrome and Sirius red staining): significantly reduced
  expression of α-SMA (IHC): significantly suppressed
MRL/lpr mice; 41-week-old female MRL/lpr mice, GO15F (30 mg/kg), GO48 (1 mg/kg), GO88 (0.5 mg/kg) intraperitoneally once daily
  hair growth on the facial region: hair growth was confirmed
MRL/lpr mice; MRL/lpr mice, H&E, PAS, Masson trichrome staining
  renal pathological tissue (glomerular capillary loops): glomerular capillary loops were well maintained
MRL/lpr mice; MRL/lpr mice, flow cytometry (B220, CD3, CD11b/F4/80)
  B cells, T cells, and macrophages in the spleen: reduced the increased B cells, T cells, and macrophages
MRL/lpr mice; MRL/lpr mice, immunofluorescence staining
  IgG deposition in kidney tissue: significantly lower
MRL/lpr mice; [4]
  concentration of anti-dsDNA IgG in the blood: significantly lower
  total IgG concentration in the blood: significantly lower
MRL/lpr mice; MRL/lpr mice, weekly urine, Bradford, vs control group
  protein concentration in urine: significantly lower than that in the control group
[2]
  PDK1 phosphorylation (phospho-PDK1 expression level): inhibitory effect on PDK1 phosphorylation
[3]
  number of β-gal-positive cells: decreased
